Data as given in patent US6773727B1, “Use of gossypol and related terpenes for control of urban and agricultural pests” (The United States of America as represented by the …, priority 2001, dated 2004).
Where two headings read alike, the source gives them in different places.

Assays:
roaches = details: as recommended by manufacturers; cited from earlier work
[1] = system: tobacco budworm larval growth; details: in vivo; cited from earlier work
[2] = system: tobacco budworm (Heliothis virescens [F.]) larvae; details: cited from earlier work; for effective dosage required to reduce by 50% the growth of larvae: larvae fed an artificial diet; for effect on growth: at 2.5 μmoles/g diet
[3] = as recommended by manufacturers; pest not stated; cited from earlier work
termites = experiment: Termite lab colony bait matrix test (time to 100% mortality); type: in vivo, Formosan subterranean termite
Experimental: Gossypol acetic acid complex, which is a commercially available pure chemical, is dissolved in 1 ml acetone (#9006-03; J. T. Baker, Phillipsburg, NJ) using a sterile container. In the pure form as gossypol acetic acid complex and at concentrations of 5 ppm, gossypol is effective when mixed with a chitin synthesis inhibitor of the benzophenyl urea family or microbes such as fungi, bacteria, or viruses, taking a mean time to kill the lab test of four months. At concentrations greater than 500 ppm, without the addition of any other chemical, gossypol acetic acid complex as an insecticide can kill the lab test colony after a mean duration of one month.
Gossypol-acetic acid complex obtained from USDA-ARS-SRCC, New Orleans, La., crude cotton seed oil [8ETX(5)], from a commercial oil mill, and a commercial cotton meal [6MTN 925 CSM] were separately incorporated into a bait matrix as described in U.S. patent application Ser. No. 09/294,499 filed Apr. 20, 1999, at concentrations of 50, 25, and 12.5 ppm respectively. […] A total of 40 mg of the gossypol acetic acid complex, 250 mg of the crude cotton seed oil, and 900 mg of the cotton seed meal were individually weighed using a Mettler balance (model PB303; Fisher Scientific, Pittsburgh, Pa.). The gossypol-acetic acid complex was placed into a 50 ml sterile screw cap conical tube (#62.547.004; Sarstedt, Newton, N.C.) and dissolved with 1 ml acetone (#9006-03; J. T. Baker, Phillipsburg, N.J.).
Under a laminar flow hood, the gossypol acetone solution was mixed with 40 ml of sterile nutritional supplement containing 150 ppm of chitin inhibitors (prepared as reported by Rojas, M. G. and Morales-Ramos, J. A., Apr. 2001, “Bait matrix for delivery of chitin synthesis inhibitors to the Formosan subterranean termite [Isoptera: Rhinotermitidae],” J. Econ. Entomol. 94(2):506-510). The tube was tightly closed with a screw cap and manually shaken for 30 seconds. The mixture was added to 100 g of sterile cellulose as reported by Rojas and Morales-Ramos (2001) supra. The cotton seed oil was mixed with 300 ml of supplement and mixed with the sterile cellulose. The cotton seed meal was mixed and homogenized with the sterile cellulose, and then the 300 ml nutritional supplement was added. Each mixture was manually homogenized using a stainless steel spatula.
The mixtures were prepared as reported above for gossypol-chitin inhibitors, but without the addition of the chitin inhibitors. The fungal spores (400 mg) (Bio-Blast, EcoScience, Orlando, Fla.) were homogenized with the sterile cellulose, then the 300 ml of supplement gossypol-containing solution was added.
To encase the bait matrix, tubes made of fibrous casing material (#124B; L. E. M. Products, Inc., Miamitown, Ohio) were cut into 150 mm long portions as reported by Rojas and Morales-Ramos (2001) supra. Fifty grams of bait matrix containing a mixture of a single gossypol source and a single chitin synthesis inhibitor, or single gossypol source and fungal spores, were compacted into one end of the inlet tube, at which point the open end of the inlet tube was closed with a rubber band. The bait casing was placed inside of the foraging box adjacent to a 10 g piece of pine wood, taking care that they were partially covered with the sand. […]
All the experimental boxes were maintained under dark at 29±2° C., and 75±2% relative humidity. […] The time to reach 100% mortality was measured and recorded. […]

[4] = system: Spiny bollworm (Earias insulana Boisduval); details: cited from earlier work
[5] = system: cotton leafworm (Spodoptera littoralis [Boisduval]); details: cited from earlier work
bollworms = details: 0.15% gossypol in an artificial diet; regular diet 54.5%; cited from earlier work
tobacco budworms = details: cited from earlier work
[6] = system: tobacco budworm neonate larvae; details: nine days, cited from earlier work
protease = details: cotton leafworm (S. littoralis); cited from earlier work
amylase = details: cotton leafworm (S. littoralis); cited from earlier work
invertase = details: cotton leafworm (S. littoralis); cited from earlier work
[7] = system: silverleaf whitefly (Bemisia argentifolii Bellows and Perring); details: in vivo; cited from earlier work
subterranean termites = details: as recommended by manufacturers; cited from earlier work
ants = details: as recommended by manufacturers; cited from earlier work

N#Cc1nn(-c2c(Cl)cc(C(F)(F)F)cc2Cl)c(N)c1[S+]([O-])C(F)(F)F (stereo not drawn) [fipronil]
lethal amount (roaches): about 0.05%

C=C1CC[C@H]2O[C@]2(C)CC[C@@H]2[C@@H]1CC2(C)C [caryophyllene oxide]
interaction with gossypol in retarding larval growth [1]: interacts synergistically

COc1c(O)c(C=O)c2c(c1C(C)C)C(=O)C1(C)CC=C(C)C(CC=C(C)C)C1C2=O (stereo not drawn) [heliocide B1]
effective dosage required to reduce by 50% the growth of larvae [2]: 4.6 μmoles/g diet

COc1c(O)c(C=O)c2c(c1C(C)C)C(=O)C1(C)CC=C(CCC=C(C)C)CC1C2=O (stereo not drawn) [heliocide B2]
effect on growth [2]: no effect on growth

CC(C)=CCCC1=CC[C@H]2C(=O)c3c(C=O)c(O)c(O)c(C(C)C)c3C(=O)[C@@]2(C)C1 [heliocide H3]
effective dosage required to reduce by 50% the growth of larvae [2]: 3.9 μmoles/g diet

O=C(NC(=O)c1c(F)cccc1F)Nc1ccc(Cl)cc1 [diflubenzuron]
lethal amount [3]: about 0.250%

CC(=O)O.Cc1cc2c(C(C)C)c(O)c(O)c(C=O)c2c(O)c1-c1c(C)cc2c(C(C)C)c(O)c(O)c(C=O)c2c1O [gossypol acetic acid complex, Gossypol acetic acid complex]
mean time to kill the lab test (termites; 5 ppm, mixed with a chitin synthesis inhibitor of the benzophenyl urea family or microbes): four
time to mortality of a 1000-worker colony (termites; 500 ppm, not mixed with any other chemicals, fungi, or bacteria): about 2.5 weeks
mean duration to kill the lab test colony (termites; concentrations greater than 500 ppm, without any other chemical): one
dose sufficient to weaken the termites and allow other chemicals or microorganisms to induce mortality (termites; preliminary results, doses from 5 to 500 ppm, mortality in about two months, no signs of repellency): 100 ppm

Cc1cc2c(C(C)C)c(O)c(O)c(C=O)c2c(O)c1-c1c(C)cc2c(C(C)C)c(O)c(O)c(C=O)c2c1O [gossypol]
time until experimental colonies were dead (termites; gossypol with the chitin inhibitor in bait matrix, control boxes (no gossypol) still alive): about two
effective dosage required to reduce by 50% the growth of larvae [2]: 0.8 μmoles/g diet
pupated ([4]; bolls containing 0.58% gossypol): 45%
pupated ([4]; bolls containing 2.34% gossypol): 9%
mortality ([5]; 0.5% gossypol in the diet, after 10 days): ~70%
larvae eventually pupated ([5]; 0.5% gossypol in the diet): 0.3%
feeding ([5]; 1.0% gossypol in the diet): strongly suppressed feeding
food utilization (bollworms): 42.5%
food consumption (tobacco budworms; gossypol 0.30%, 5- and 8-day-old larvae): impaired
food utilization (tobacco budworms; gossypol at the 0.15% level): did not measurably affect food utilization
larval size relative to control ([6]; 0.02% gossypol in artificial diet): 98%
larval weight relative to controls ([6]; 0.06% gossypol in the diet): 63%
larval weight relative to controls ([6]; 0.2% gossypol in the diet): 13%
protease activity (protease): inhibits
amylase activity (amylase): inhibits
invertase activity (invertase): does not affect
honeydew production [7]: did not affect
mortality [7]: did not affect

caryophyllene
interaction with gossypol in retarding larval growth [1]: does not act synergistically

CC1(C)CNC(=NN=C(/C=C/c2ccc(C(F)(F)F)cc2)/C=C/c2ccc(C(F)(F)F)cc2)NC1 [hydramethylnon]
lethal amount (subterranean termites): about 0.030%
lethal amount (ants): about 1.0%

CC(C)=CCCC1=CC[C@]2(C)C(=O)c3c(c(C=O)c(O)c(O)c3C(C)C)C(=O)[C@@H]2C1 [heliocide H2]
effective dosage required to reduce by 50% the growth of larvae [2]: 11.2 μmoles/g diet

O=C(NC(=O)c1c(F)cccc1F)Nc1cc(Cl)c(Oc2ncc(C(F)(F)F)cc2Cl)c(Cl)c1 [chlorfuazuron]
lethal amount [3]: about 0.5%

CC1=CC(=O)c2c(C=O)c(O)c(O)c(C(C)C)c2C1=O [hemigossypolone]
effective dosage required to reduce by 50% the growth of larvae [2]: 10.5 μmoles/g diet

COc1c(O)c(C=O)c2c(c1C(C)C)C(=O)C1(C)CC(CCC=C(C)C)=CCC1C2=O (stereo not drawn) [heliocide B3]
effect on growth [2]: no effect on growth

O=C(NC(=O)c1c(F)cccc1F)Nc1cc(Cl)c(OC(F)(F)C(F)F)c(Cl)c1 [hexaflumuron]
lethal amount [3]: about 0.5%

O=[N+]([O-])NC1=NCCN1Cc1ccc(Cl)nc1 [imidacloprid]
lethal amount (roaches): about 2.15%

CC(C)=CCC1C(C)=CCC2(C)C(=O)c3c(c(C=O)c(O)c(O)c3C(C)C)C(=O)C12 (stereo not drawn) [heliocide H1]
effective dosage required to reduce by 50% the growth of larvae [2]: 2.5 μmoles/g diet

COc1c(O)c(C=O)c2c(c1C(C)C)C(=O)C(C)=CC2=O [Hemigossypolone-6-methyl ether]
effect on growth [2]: no effect on growth
